The results in this text go back to patent US12570655B2, “Cysteine covalent modifiers of AKT1 and uses thereof” (Terremoto Biosciences, Inc., priority 2023, dated 2026).

Where two headings read alike, the source gives them in different places. Where only a bound is given, the exact number is not on record here.

What all share (format): cell-based
The target of assay [1] is T1, AKT2 (Homo sapiens, UniProt P31751).
T1 construct: expressed in transfected cells; host or cells: HEK293
The experiment in a line: Live cell AKT2 target engagement by NanoBRET competitive probe displacement. Conditions: HEK293 cells transfected with kinase-NanoLuciferase fusion, 2 h at 37° C. The procedure:
Determining Live Cell AKT1 E17K, AKT1 WT, and AKT2 Target Engagement by NanoBRET Competitive Probe Displacement.
Live cell target engagement assays were performed as described (Vasta, J. D. et al. Cell Chem Biol 2018, 25(11), 206-214). Briefly, HEK293 cells were transfected with plasmids encoding kinase-NanoLuciferase fusion proteins overnight. Cells were then treated with serial dilutions of compound and an ˜EC50 concentration of fluorescently-tagged ATP-competitive tracer (Promega). After incubation for 2 h at 37° C., luciferase substrate and extracellular luciferase inhibitor were added to all wells, and luminescent intensity at 460 nm and 600 nm were measured on a multimode plate-reader. The ratio of E600/E460 was calculated to give the tracer engagement signal (BRET). IC50 values were calculated by fitting BRET values to a log(inhibitor) vs. response Hill equation.
For orientation: BRET reads energy transfer from a luciferase to a nearby fluorophore.

Assay [2] relates to LAPC4 prostate cancer cells. The experiment in a line: Antiproliferative effects in LAPC4 cells (CellTiter Glo). Conditions: LAPC4 cells (AKT1 E17K allele), read-out: LAPC4 proliferation IC50. Put shortly:
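Seed 1,000 cells/well in IMDM/12% FBS/1% P/S; add compound dilutions (DMSO); incubate 72 h; read intracellular ATP with CellTiter Glo; fit luminescence to log(inhibitor)-response Hill curve for IC50.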
(Cellular ATP, detected with luciferase, serves as a proxy for viable cell number.)

The target of assay [3] is T2, AKT1 WT (Homo sapiens, UniProt P31749).
T2 construct: expressed in transfected cells; host or cells: HEK293
The experiment in a line: Live cell AKT1 WT target engagement by NanoBRET competitive probe displacement. The settings on record: HEK293 cells transfected with kinase-NanoLuciferase fusion, 2 h at 37° C. Put shortly:
(§1)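 IC50 reflects displacement of a fluorescent ATP-competitive tracer, dosed near its EC50, from kinase–NanoLuciferase fusions in live HEK293 cells. Cells were incubated with compound and tracer for 2 h at 37 °C, then E600/E460 BRET was read.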

Assay [4] addresses T3, AKT1 E17K (Homo sapiens, UniProt P31749, E17K).
T3 construct: expressed in transfected cells; host or cells: HEK293
As to the kind of experiment: Live cell AKT1 E17K target engagement by NanoBRET competitive probe displacement. Conditions: HEK293 cells transfected with kinase-NanoLuciferase fusion, 2 h at 37° C. Put shortly: as §1

T3 sequence (P31749 whole entry E17K): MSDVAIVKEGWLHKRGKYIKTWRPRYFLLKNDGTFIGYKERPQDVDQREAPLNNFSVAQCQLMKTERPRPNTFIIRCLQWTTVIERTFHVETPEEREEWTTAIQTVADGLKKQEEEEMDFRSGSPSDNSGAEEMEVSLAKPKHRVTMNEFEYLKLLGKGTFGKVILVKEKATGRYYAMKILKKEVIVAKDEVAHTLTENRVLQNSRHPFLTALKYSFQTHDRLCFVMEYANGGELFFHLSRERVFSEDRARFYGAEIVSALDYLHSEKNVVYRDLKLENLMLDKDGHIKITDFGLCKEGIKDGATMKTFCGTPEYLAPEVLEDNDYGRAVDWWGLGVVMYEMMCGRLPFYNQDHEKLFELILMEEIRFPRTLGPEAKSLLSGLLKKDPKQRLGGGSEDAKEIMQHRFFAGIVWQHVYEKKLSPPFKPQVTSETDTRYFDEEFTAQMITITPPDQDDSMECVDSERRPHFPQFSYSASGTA
T1 sequence (P31751 whole entry): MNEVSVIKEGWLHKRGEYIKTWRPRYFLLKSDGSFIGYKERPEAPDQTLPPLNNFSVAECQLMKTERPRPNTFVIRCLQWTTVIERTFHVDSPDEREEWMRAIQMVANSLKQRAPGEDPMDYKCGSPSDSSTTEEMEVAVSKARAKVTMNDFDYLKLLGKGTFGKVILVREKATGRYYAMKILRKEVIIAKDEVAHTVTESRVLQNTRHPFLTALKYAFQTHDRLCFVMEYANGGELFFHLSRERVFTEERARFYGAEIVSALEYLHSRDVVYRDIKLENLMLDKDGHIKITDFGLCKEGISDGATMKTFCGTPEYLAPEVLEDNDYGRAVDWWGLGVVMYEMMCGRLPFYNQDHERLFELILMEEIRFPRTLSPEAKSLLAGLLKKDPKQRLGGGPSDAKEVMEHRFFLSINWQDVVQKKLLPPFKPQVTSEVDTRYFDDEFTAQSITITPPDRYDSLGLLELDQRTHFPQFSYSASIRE
T2 sequence (P31749 whole entry): as the sequence (P31749 whole entry E17K) above, with K17E counted along it

Regarding `C=CC(=O)Nc1cc(C(F)F)ccc1C(=O)N[C@H]1CCc2cc(-n3c(-c4cccnc4N)nc4ccc(-n5cccn5)nc43)ccc21` [Example 43, (S)-2-acrylamido-N-(5-(2-(2-aminopyridin-3-yl)-5-(1H-pyrazol-1-yl)-3H-imidazo[4,5-b]pyridin-3-yl)-2,3-dihydro-1H-inden-1-yl)-4-(difluoromethyl)benzamide], the IC50 in assay [1] was above 10000 nM; in assay [2] (Homo sapiens, LAPC4, 72 h) it was above 10000 nM; in assay [3], 317 nM; in assay [4], above 1000 nM.
For the compound `C=CC(=O)N1CCC(N[C@H]2CCc3cc(-n4c(-c5cccnc5N)nc5ccc(-n6cccn6)nc54)ccc32)C(C)C1` (single isomer, unassigned) [Example 100, 1-((3*,4*)-4-(((S)-5-(2-(2-aminopyridin-3-yl)-5-(1H-pyrazol-1-yl)-3H-imidazo[4,5-b]pyridin-3-yl)-2,3-dihydro-1H-inden-1-yl)amino)-3-methylpiperidin-1-yl)prop-2-en-1-one], the IC50 in assay [1] turned out to be 135 nM; in assay [2] (72 h), 187 nM; in assay [3], 9.09 nM; in assay [4] it was 53.6 nM.
With `C=CC(=O)N1CCC(N[C@@H]2c3ccc(-n4c(-c5cccnc5N)nc5ccc(-n6cccn6)nc54)cc3CC2F)CC1C(F)F` (single isomer, unassigned) [Example 304, 1-((2*,4*)-4-(((1R,2*)-5-(2-(2-aminopyridin-3-yl)-5-(1H-pyrazol-1-yl)-3H-imidazo[4,5-b]pyridin-3-yl)-2-fluoro-2,3-dihydro-1H-inden-1-yl)amino)-2-(difluoromethyl)piperidin-1-yl)prop-2-en-1-one], the IC50 turned out to be 36.2 nM in assay [1], 641 nM in assay [2] (72 h), 264 nM in assay [3] and 11.6 nM in assay [4].
Regarding `C=CC(=O)Nc1ccccc1CN[C@H]1CCc2cc(-n3c(-c4cccnc4N)nc4ccc(-n5cccn5)nc43)ccc21` [Example 39, N-[2-({[(1S)-5-[2-(2-aminopyridin-3-yl)-5-(pyrazol-1-yl)imidazo[4,5-b]pyridin-3-yl]-2,3-dihydro-1H-inden-1-yl]amino}methyl)phenyl]prop-2-enamide], the IC50 came out at 94.8 nM in assay [1]; 1600 nM in assay [2] (Homo sapiens, LAPC4, 72 h); 64.2 nM in assay [3]; 94.9 nM in assay [4].
`C=CC(=O)N1CCC(N[C@H]2CCc3cc(-n4c(-c5cccnc5N)nc5ccc(-n6cccn6)nc54)ccc32)C(F)C1` (single isomer, unassigned) [Example 105, 1-((3*,4*)-4-(((S)-5-(2-(2-aminopyridin-3-yl)-5-(1H-pyrazol-1-yl)-3H-imidazo[4,5-b]pyridin-3-yl)-2,3-dihydro-1H-inden-1-yl)amino)-3-fluoropiperidin-1-yl)prop-2-en-1-one]: the IC50 stood at 50.1 nM in assay [1], 53 nM in assay [2] (72 h), 4.51 nM in assay [3] and 14.8 nM in assay [4].
With `CC#CC(=O)Nc1ccccc1C(=O)N[C@H]1CCc2cc(-n3c(-c4cccnc4N)nc4ccc(-n5cccn5)nc43)ccc21` [Example 9, N-[(1S)-5-[2-(2-aminopyridin-3-yl)-5-(pyrazol-1-yl)imidazo[4,5-b]pyridin-3-yl]-2,3-dihydro-1H-inden-1-yl]-2-(but-2-ynamido)benzamide], the IC50 in assay [1] is 440 nM; in assay [2] (Homo sapiens, LAPC4, 72 h) it was 528 nM; in assay [3] it was 21.9 nM; in assay [4], 96.9 nM.
As for `C=CC(=O)N1CCC(N[C@H]2CCc3cc(-n4c(-c5cccnc5N)nc5ccc(-c6nnc(C7CC7)s6)nc54)ccc32)CC1` [Example 320, (S)-1-(4-((5-(2-(2-aminopyridin-3-yl)-5-(5-cyclopropyl-1,3,4-thiadiazol-2-yl)-3H-imidazo[4,5-b]pyridin-3-yl)-2,3-dihydro-1H-inden-1-yl)amino)piperidin-1-yl)prop-2-en-1-one], the IC50 in assay [1] amounted to 45.5 nM; in assay [2] (Homo sapiens, LAPC4, 72 h), 78.2 nM; in assay [3], 290 nM; in assay [4], 11.8 nM.
The matching figures for `C=CC(=O)N1CCC(N[C@H]2CCc3cc(-n4c(-c5cccnc5N)nc5ccc(C6CC6)nc54)ccc32)CC1` [Example 85, (S)-1-(4-((5-(2-(2-aminopyridin-3-yl)-5-cyclopropyl-3H-imidazo[4,5-b]pyridin-3-yl)-2,3-dihydro-1H-inden-1-yl)amino)piperidin-1-yl)prop-2-en-1-one]: 865 nM, 1390 nM, 46 nM and 546 nM.
As to `C=CC(=O)N1CCC(N[C@@H]2c3ccc(-n4c(-c5cccnc5N)nc5ccc(-n6cccn6)nc54)cc3C[C@@H]2F)CC1` [Example 76, 1-(4-(((1R,2S)-5-(2-(2-aminopyridin-3-yl)-5-(1H-pyrazol-1-yl)-3H-imidazo[4,5-b]pyridin-3-yl)-2-fluoro-2,3-dihydro-1H-inden-1-yl)amino)piperidin-1-yl)prop-2-en-1-one], the IC50 amounted to 232 nM in assay [1]; 369 nM in assay [2] (Homo sapiens, LAPC4, 72 h); 23.3 nM in assay [3]; 60.1 nM in assay [4].
For the compound `C=CC(=O)N1CCC(N[C@H]2CCc3cc(-n4c(-c5cccnc5N)nc5ccc(-n6cccn6)nc54)ccc32)C(F)(F)C1` (single isomer, unassigned) [Example 55, 1-((*)-4-(((S)-5-(2-(2-aminopyridin-3-yl)-5-(1H-pyrazol-1-yl)-3H-imidazo[4,5-b]pyridin-3-yl)-2,3-dihydro-1H-inden-1-yl)amino)-3,3-difluoropiperidin-1-yl)prop-2-en-1-one], the IC50 in assay [1] was determined as 1120 nM; in assay [2] (72 h) it was 617 nM; in assay [3], 93.7 nM; in assay [4], 215 nM.
Take `C=CC(=O)N1CCC(N[C@@H]2c3ccc(-n4c(-c5cccnc5N)nc5ccc(-n6cccn6)nc54)cc3CC2F)C[C@H]1C` (single isomer, unassigned) [Example 144, 1-((2R,4*)-4-(((1R,2*)-5-(2-(2-aminopyridin-3-yl)-5-(1H-pyrazol-1-yl)-3H-imidazo[4,5-b]pyridin-3-yl)-2-fluoro-2,3-dihydro-1H-inden-1-yl)amino)-2-methylpiperidin-1-yl)prop-2-en-1-one]: the IC50 was 1180 nM in assay [1], 293 nM in assay [2] (72 h), 26 nM in assay [3] and 74.1 nM in assay [4].
Turning to `C=CC(=O)N1CCC(N[C@H]2CCc3cc(-n4c(-c5cccnc5N)nc5ccc(-c6cnccn6)nc54)ccc32)CC1` [Example 120, (S)-1-(4-((5-(2-(2-aminopyridin-3-yl)-5-(pyrazin-2-yl)-3H-imidazo[4,5-b]pyridin-3-yl)-2,3-dihydro-1H-inden-1-yl)amino)piperidin-1-yl)prop-2-en-1-one], the IC50 is 885 nM in assay [1]; 814 nM in assay [2] (Homo sapiens, LAPC4, 72 h); 23.6 nM in assay [3]; 185 nM in assay [4].
Turning to `C=CC(=O)N1CCN(NC2CCc3cc(-n4c(-c5cccnc5N)nc5ccc(-n6cccn6)nc54)ccc32)CC1` (racemic) [Example 77, 1-[4-({5-[2-(2-aminopyridin-3-yl)-5-(pyrazol-1-yl)imidazo[4,5-b]pyridin-3-yl]-2,3-dihydro-1H-inden-1-yl}amino)piperazin-1-yl]prop-2-en-1-one], the IC50 came to 346 nM in assay [1]; 247 nM in assay [2] (Homo sapiens, LAPC4, 72 h); 17.9 nM in assay [3]; 86.3 nM in assay [4].
On to `C=CC(=O)N1CCC(CC2CCc3cc(-n4c(-c5cccnc5N)nc5ccc(-n6cccn6)nc54)ccc32)CC1` (single isomer, unassigned) [Example 343, 1-(4-(((*)-5-(2-(2-aminopyridin-3-yl)-5-(1H-pyrazol-1-yl)-3H-imidazo[4,5-b]pyridin-3-yl)-2,3-dihydro-1H-inden-1-yl)methyl)piperidin-1-yl)prop-2-en-1-one], for which the IC50 amounted to 15.9 nM in assay [1], 86.1 nM in assay [3] and 6.65 nM in assay [4].
Regarding `C=CC(=O)N1CCC(NC2c3ccc(-n4c(-c5cccnc5N)nc5ccc(-n6ccc(C7CC7)n6)nc54)cc3CC2F)CC1C(F)F` (single isomer, unassigned) [Example 336, 1-((2*,4*)-4-(((1*,2*)-5-(2-(2-aminopyridin-3-yl)-5-(3-cyclopropyl-1H-pyrazol-1-yl)-3H-imidazo[4,5-b]pyridin-3-yl)-2-fluoro-2,3-dihydro-1H-inden-1-yl)amino)-2-(difluoromethyl)piperidin-1-yl)prop-2-en-1-one], the IC50 in assay [1] amounted to 25.4 nM; in assay [3], 523 nM; in assay [4], 16.4 nM.
Regarding `C=CC(=O)N1CCC(N[C@H]2CCc3cc(-n4c(-c5cccnc5N)nc5ccc(-n6ccc(C7(F)CC7)n6)nc54)ccc32)CC1` [Example 323, 1-(4-{[(1S)-5-[2-(2-aminopyridin-3-yl)-5-[3-(1-fluorocyclopropyl)pyrazol-1-yl]imidazo[4,5-b]pyridin-3-yl]-2,3-dihydro-1H-inden-1-yl]amino}piperidin-1-yl)prop-2-en-1-one], the IC50 in assay [1] is 45.3 nM; in assay [3] it was 263 nM; in assay [4], 6.22 nM.
